{"source": "paper PMC11984392", "about": "“EphA2-targeted alpha-particle theranostics for enhancing PDAC treatment” (Theranostics, 2025)", "key": {"[1]": {"test": "In vitro stability of radiotracers in human serum", "format": "in vitro ADME", "details": "radio-RP-HPLC after ultrafiltration (10 kDa)", "procedure": "The stability of the radiotracers was assessed in saline and human serum at 37 °C to mimic physiological conditions. Approximately 1.5 mCi of the radiotracer, prepared in 100-150 µL of saline, was added to 0.5 mL of either saline or human serum in separate microcentrifuge tubes. The mixtures were gently vortexed and then incubated at 37 °C in an incubator. At predetermined time-points (1, 2, and 3 h), 100 µL aliquots were collected from the incubation mixtures for analysis. For serum samples, proteins were removed by adding 100 µL of saline and 50 µL of ethanol, followed by ultrafiltration using 10 kDa centrifugal filters made of regenerative cellulose membranes. The filtration process was performed by centrifugation at 14,000 rpm for 10 min and repeated once more to ensure complete protein removal. The filtrate was collected for analysis. The radiochemical integrity of the radiotracer in both saline and serum was evaluated using radio-RP-HPLC."}, "AsPC1 cells": {"tested_on": "AsPC1 cells", "test": "In vitro binding assay with Ga-68 radiotracer", "format": "cell-based, human", "details": "1 µCi, 60 min, 4 °C, mean ± SD (n = 3-4)", "procedure": "(§1) In vitro binding assays were performed to determine the binding of [^68Ga]AJ201 and [^68Ga]AJ210 to Jurkat and PDAC cell lines. Approximately 1 μCi of radiotracer was incubated with cells in 100 μL culture media for 60 min at 4 °C. After incubation, cells were washed three times with ice cold PBS and counted on an automated gamma counter (1282 Compugamma CS, Pharmacia/LKBNuclear, Inc., Gaithersburg, MD). […] For kinetic study, 8×10^6 Panc1 cells/vial were incubated with approximately 8 μCi/vial of [^68Ga]AJ201 in culture media in triplicates at 37 °C and 4 °C in separate tubes. 1×10^6 cells were aliquoted at predetermined timepoints (5, 15, 30, 60 min). Excess radioactivity was removed by washing three times with PBS. Activity in cell pellets were measured on an automated gamma counter."}, "BxPC3 cells": {"tested_on": "BxPC3 cells", "test": "In vitro binding assay with Ga-68 radiotracer", "format": "cell-based, human", "details": "1 µCi, 60 min, 4 °C, mean ± SD (n = 3-4)", "procedure": "as §1"}, "CFPAC cells": {"tested_on": "CFPAC cells", "test": "In vitro binding assay with Ga-68 radiotracer", "format": "cell-based, human", "details": "1 µCi, 60 min, 4 °C, mean ± SD (n = 3-4)", "procedure": "as §1"}, "Hs766T cells": {"tested_on": "Hs766T cells", "test": "In vitro binding assay with Ga-68 radiotracer", "format": "cell-based, human", "details": "1 µCi, 60 min, 4 °C, mean ± SD (n = 3-4)", "procedure": "as §1"}, "Jurkat cells": {"tested_on": "Jurkat cells", "test": "In vitro binding assay with Ga-68 radiotracer", "format": "cell-based, human", "details": "Jurkat (negative control cells); 1 µCi, 60 min, 4 °C; mean ± SD (n = 3-4)", "procedure": "as §1"}, "Panc1 cells": {"tested_on": "Panc1 cells", "test": "In vitro binding assay with Ga-68 radiotracer", "format": "cell-based, human", "procedure": "as §1"}, "Panc1005 cells": {"tested_on": "Panc1005 cells", "test": "In vitro binding assay with Ga-68 radiotracer", "format": "cell-based, human", "details": "1 µCi, 60 min, 4 °C, mean ± SD (n = 3-4)", "procedure": "as §1"}, "Su8686 cells": {"tested_on": "Su8686 cells", "test": "In vitro binding assay with Ga-68 radiotracer", "format": "cell-based, human", "details": "1 µCi, 60 min, 4 °C, mean ± SD (n = 3-4)", "procedure": "as §1"}, "Panc1 tumor xenografts": {"tested_on": "Panc1 tumor xenografts", "test": "Whole-body dynamic PET pharmacokinetics", "format": "in vivo, NSG mice", "details": "~250 µCi i.v., remaining constant until 90 min", "procedure": "Dynamic PET images were acquired on a Simultaneous 7T Bruker PET-MR scanner to evaluate the pharmacokinetics of [^68Ga]AJ201. Mice bearing Panc1 tumor xenografts were anesthetized under 2.5% isoflurane and a catheter was fixed in the tail vein before being secured on the PET-MR bed. An activity of ~250 µCi (9.3 MBq; 0.5 to 0.8 nmol) of [^68Ga]AJ201 was administered intravenously and whole-body PET dynamic scans were performed. Dynamic PET scans were initiated one min before radiotracer injection and acquired at varying intervals to capture early and late-phase kinetics: every 30 s from -1 to 5 min, every min from 5 to 15 min, every 3 min from 15 to 30 min, every 5 min from 30 to 60 min, and every 10 min from 60 to 90 min. The acquired PET data were reconstructed and corrected for radioactive decay and dead time using ParaVision 360 V2 by Bruker. The percentage of injected dose per cc (%ID/cc) values were obtained by drawing ROI on the tumor, muscle, heart, liver and kidney using PMOD software, and image fusion and visualization were also performed using PMOD software."}, "Ex vivo biodistribution": {"test": "Ex vivo biodistribution", "format": "in vivo, mice", "details": "mouse, in vivo, total radioactivity, KPC syngeneic tumor, 60 min p.i., mean ± SEM (n = 5)", "procedure": "(§2) Mice with 100-200 mm^3 tumor volume were used for ex vivo biodistribution studies. For radiotracer pharmacokinetics and dosimetry studies, mice with Panc1 tumor xenograft received ~80 µCi (2.96 MBq) [^68Ga]AJ201 and were sacrificed at pre-determined time points (5, 30, 60, 90 and 120 min). All other mice were injected with ~50 µCi (1.85 MBq; 0.2 to 0.5 nmol) Ga-68 labeled radiotracer and were sacrificed at 60 min. The selected tissues were collected, weighed, counted, and their %ID/g values calculated for biodistribution analysis. For pharmacokinetics and dosimetry studies, selected tissues included blood, muscle, tumor, thymus, heart, lung, liver, pancreas, stomach, small intestine, large intestine, spleen, adrenals, kidney, bladder, femur, brain and tumor xenografts. For other studies, selected tissues were blood, muscle, tumor, heart, lung, liver, pancreas, small intestine, spleen, kidney."}, "KPC syngeneic tumor": {"tested_on": "KPC syngeneic tumor", "test": "Ex vivo biodistribution", "format": "in vivo, mice", "details": "KPC syngeneic tumor; 60 min p.i.; mean ± SEM (n = 5)", "procedure": "as §2"}}, "note": "Where two headings read alike, the source gives them in different places. *1 amine or outer side, *2 acyl side, *3 side chain or, on linkers, in order; H or OH if unused. Where a SMILES comes first, the peptide text is derived from it. Bridges are numbered along the chain shown (N, C = ends). [ ]: non-standard residue; d: D form. The star is where a group is joined. TATA = O=C(CC[*:1])N1CN(C(=O)CC[*:2])CN(C(=O)CC[*:3])C1; NOTA = O=C(O)CN1CCN(CC(=O)O)CCN(CC(=O)*)CC1; Hyp = O=C(O)[C@@H]1C[C@@H](O)CN1; hArg = N=C(N)NCCCC[C@H](N)C(=O)O; PEG2 = NCCOCCOCCC(=O)O; Sar = CNCC(=O)O"}
{"smiles": "CC(C)C[C@@H]1NC(=O)[C@@H]2CSCCC(=O)N3CN(CN(C3)C(=O)CCSC[C@H](NC(=O)[C@H](CC(=O)O)NC(=O)[C@H](CCCCNC(=N)N)NC(=O)[C@H](C)NC(=O)CNC(=O)CN(C)C(=O)CN(C)C(=O)CN(C)C(=O)[C@H](CCCNC(=N)N)NC(=O)CNC(=O)CCOCCOCCNC(=O)CN3CCN(CC(=O)O)CCN(CC(=O)O)CC3)C(=O)N3C[C@H](O)C[C@H]3C(=O)N[C@@H](CC(C)C)C(=O)N[C@@H](C(C)C)C(=O)N[C@@H](CC(N)=O)C(=O)N3CCC[C@H]3C(=O)N[C@@H](CC(C)C)C(=O)N2)C(=O)CCSC[C@@H](C(N)=O)NC(=O)[C@H](CCCCNC(=N)N)NC(=O)[C@H](Cc2c[nH]c3ccccc23)NC(=O)[C@@H](CC(=O)O)NC(=O)[C@@H]2CCCN2C(=O)[C@H](Cc2c[nH]cn2)NC1=O", "note": "[[^68Ga]AJ201, metal not drawn] ({NOTA-PEG2}-GR[Sar][Sar][Sar]GA[hArg]DC[Hyp]LVNPLCLHP[dD]W[hArg]C-NH2; linker 10-17-24 via TATA)", "values": [{"measurement": "Stability in human serum (radio-HPLC finding)", "setting": "[1]; 37 °C, 1, 2 and 3 h, ~1.5 mCi in 0.5 mL", "result": "stable without noticeable degradation or impurity formation"}, {"measurement": "Time of stability in human serum", "setting": "[1]; 37 °C", "result": "at least 3 h"}, {"measurement": "Cell binding (percent incubated activity)", "setting": "AsPC1 cells", "result": "9.9 ± 1.2", "unit": "%IA"}, {"measurement": "Cell binding (percent incubated activity)", "setting": "BxPC3 cells", "result": "5.9 ± 0.2", "unit": "%IA"}, {"measurement": "Cell binding (percent incubated activity)", "setting": "CFPAC cells", "result": "1.7 ± 0.3", "unit": "%IA"}, {"measurement": "Cell binding (percent incubated activity)", "setting": "Hs766T cells", "result": "7.2 ± 0.6", "unit": "%IA"}, {"measurement": "Cell binding (percent incubated activity)", "setting": "Jurkat cells", "result": "0.8 ± 0.1", "unit": "%IA"}, {"measurement": "Time to uptake stabilization in Panc1 cells", "setting": "Panc1 cells; 4 °C, time points 5, 15, 30, 60 min", "result": "around 30 min"}, {"measurement": "Time to uptake equilibrium in Panc1 cells", "setting": "Panc1 cells; 37 °C, time points 5, 15, 30, 60 min", "result": "≤ 15", "unit": "min"}, {"measurement": "Reduction of binding to Panc1 cells by blocking", "setting": "Panc1 cells; in the presence of non-radioactive AJ201 (2 µM), P<0.0001", "result": "more than 95%"}, {"measurement": "Cell binding (percent incubated activity)", "setting": "Panc1005 cells", "result": "4.7 ± 0.1", "unit": "%IA"}, {"measurement": "Cell binding (percent incubated activity)", "setting": "Su8686 cells", "result": "22.0 ± 1.1", "unit": "%IA"}, {"measurement": "Time of peak tumor radioactivity (ROI analysis)", "setting": "Panc1 tumor xenografts", "result": 30, "unit": "min"}, {"measurement": "tissue uptake at 1 h", "setting": "Ex vivo biodistribution; 50 uCi, read-out: Bladder uptake", "result": "74.9 ± 15.3", "unit": "%ID/g"}, {"measurement": "tissue uptake at 1 h", "setting": "Ex vivo biodistribution; 50 uCi, read-out: Femur uptake", "result": "0.71 ± 0.22", "unit": "%ID/g"}, {"measurement": "tissue uptake at 1 h", "setting": "Ex vivo biodistribution; 50 uCi, read-out: Heart uptake", "result": "0.3 ± 0.06", "unit": "%ID/g"}, {"measurement": "tissue uptake at 1 h", "setting": "Ex vivo biodistribution; 50 uCi, read-out: Kidney uptake", "result": "50.3 ± 9.75", "unit": "%ID/g"}, {"measurement": "tissue uptake at 1 h", "setting": "Ex vivo biodistribution; 50 uCi, read-out: Liver uptake", "result": "2.46 ± 0.77", "unit": "%ID/g"}, {"measurement": "tissue uptake at 1 h", "setting": "Ex vivo biodistribution; 50 uCi, read-out: Lung uptake", "result": "0.78 ± 0.13", "unit": "%ID/g"}, {"measurement": "tissue uptake at 1 h", "setting": "Ex vivo biodistribution; 50 uCi, read-out: Muscle uptake", "result": "0.28 ± 0.08", "unit": "%ID/g"}, {"measurement": "tissue uptake at 1 h", "setting": "Ex vivo biodistribution; 50 uCi, read-out: Pancreas uptake", "result": "0.22 ± 0.04", "unit": "%ID/g"}, {"measurement": "tissue uptake at 1 h", "setting": "Ex vivo biodistribution; 50 uCi, read-out: Small intestine uptake", "result": "0.62 ± 0.25", "unit": "%ID/g"}, {"measurement": "tissue uptake at 1 h", "setting": "Ex vivo biodistribution; 50 uCi, read-out: Stomach uptake", "result": "0.95 ± 0.26", "unit": "%ID/g"}, {"measurement": "tissue uptake at 1 h", "setting": "Ex vivo biodistribution; 50 uCi, read-out: Tumor uptake", "result": "1.51 ± 0.28", "unit": "%ID/g"}, {"measurement": "tissue to tissue ratio at 1 h", "setting": "Ex vivo biodistribution; 50 uCi, read-out: Tumor/Muscle ratio", "result": "6 ± 0.77"}, {"measurement": "tissue to tissue ratio at 1 h", "setting": "Ex vivo biodistribution; 50 uCi, read-out: Tumor/Pancreas ratio", "result": "6.67 ± 2.18"}, {"measurement": "tissue to tissue ratio at 1 h", "setting": "Ex vivo biodistribution; 50 uCi, read-out: Tumor/blood ratio", "result": "2.17 ± 0.46"}, {"measurement": "tissue uptake at 1 h", "setting": "Ex vivo biodistribution; read-out: Blood uptake", "result": "0.75 ± 0.15", "unit": "%ID/g"}, {"measurement": "tissue uptake at 1 h", "setting": "Ex vivo biodistribution; read-out: Large Intestine uptake", "result": "0.61 ± 0.28", "unit": "%ID/g"}, {"measurement": "tissue uptake at 1 h", "setting": "Ex vivo biodistribution; read-out: Spleen uptake", "result": "0.71 ± 0.3", "unit": "%ID/g"}, {"measurement": "Brain uptake", "setting": "KPC syngeneic tumor", "result": "0.04 ± 0.01", "unit": "%ID/g"}]}
